This is an account of results in US7998989B2, “2-Imino-1,3-thiazoline-based compounds and T-type calcium channel inhibitors containing the same” (Korea Institute of Science and Technology, priority 2007, dated 2011).

Data set [1] deals with T1, α1G T-type calcium channel (Homo sapiens, UniProt O43497).
T1 construct: host or cells: HEK293
Description: Assay for % inhibiting activity against T-type calcium channel using FDSS6000 (fluo-3 calcium imaging, KCl activation). It counts as cell-based. The following applies: HEK293, 10 μM; HEK293 cells stably expressing α1G T-type calcium channel and Kir2.1; compounds of the examples; read-out: FDSS (% inhibition)/10uM. The essentials: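 Percent inhibition derived from […] area against untreated control (100%), after 75 s compound pre-exposure and 75 mM KCl activation. Cells: HEK293 with stable α1G plus Kir2.1, fluo-3/AM-labelled (5 μM), assayed in pH 7.4 HEPES containing 10 mM CaCl2.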

T1 sequence (O43497 whole entry): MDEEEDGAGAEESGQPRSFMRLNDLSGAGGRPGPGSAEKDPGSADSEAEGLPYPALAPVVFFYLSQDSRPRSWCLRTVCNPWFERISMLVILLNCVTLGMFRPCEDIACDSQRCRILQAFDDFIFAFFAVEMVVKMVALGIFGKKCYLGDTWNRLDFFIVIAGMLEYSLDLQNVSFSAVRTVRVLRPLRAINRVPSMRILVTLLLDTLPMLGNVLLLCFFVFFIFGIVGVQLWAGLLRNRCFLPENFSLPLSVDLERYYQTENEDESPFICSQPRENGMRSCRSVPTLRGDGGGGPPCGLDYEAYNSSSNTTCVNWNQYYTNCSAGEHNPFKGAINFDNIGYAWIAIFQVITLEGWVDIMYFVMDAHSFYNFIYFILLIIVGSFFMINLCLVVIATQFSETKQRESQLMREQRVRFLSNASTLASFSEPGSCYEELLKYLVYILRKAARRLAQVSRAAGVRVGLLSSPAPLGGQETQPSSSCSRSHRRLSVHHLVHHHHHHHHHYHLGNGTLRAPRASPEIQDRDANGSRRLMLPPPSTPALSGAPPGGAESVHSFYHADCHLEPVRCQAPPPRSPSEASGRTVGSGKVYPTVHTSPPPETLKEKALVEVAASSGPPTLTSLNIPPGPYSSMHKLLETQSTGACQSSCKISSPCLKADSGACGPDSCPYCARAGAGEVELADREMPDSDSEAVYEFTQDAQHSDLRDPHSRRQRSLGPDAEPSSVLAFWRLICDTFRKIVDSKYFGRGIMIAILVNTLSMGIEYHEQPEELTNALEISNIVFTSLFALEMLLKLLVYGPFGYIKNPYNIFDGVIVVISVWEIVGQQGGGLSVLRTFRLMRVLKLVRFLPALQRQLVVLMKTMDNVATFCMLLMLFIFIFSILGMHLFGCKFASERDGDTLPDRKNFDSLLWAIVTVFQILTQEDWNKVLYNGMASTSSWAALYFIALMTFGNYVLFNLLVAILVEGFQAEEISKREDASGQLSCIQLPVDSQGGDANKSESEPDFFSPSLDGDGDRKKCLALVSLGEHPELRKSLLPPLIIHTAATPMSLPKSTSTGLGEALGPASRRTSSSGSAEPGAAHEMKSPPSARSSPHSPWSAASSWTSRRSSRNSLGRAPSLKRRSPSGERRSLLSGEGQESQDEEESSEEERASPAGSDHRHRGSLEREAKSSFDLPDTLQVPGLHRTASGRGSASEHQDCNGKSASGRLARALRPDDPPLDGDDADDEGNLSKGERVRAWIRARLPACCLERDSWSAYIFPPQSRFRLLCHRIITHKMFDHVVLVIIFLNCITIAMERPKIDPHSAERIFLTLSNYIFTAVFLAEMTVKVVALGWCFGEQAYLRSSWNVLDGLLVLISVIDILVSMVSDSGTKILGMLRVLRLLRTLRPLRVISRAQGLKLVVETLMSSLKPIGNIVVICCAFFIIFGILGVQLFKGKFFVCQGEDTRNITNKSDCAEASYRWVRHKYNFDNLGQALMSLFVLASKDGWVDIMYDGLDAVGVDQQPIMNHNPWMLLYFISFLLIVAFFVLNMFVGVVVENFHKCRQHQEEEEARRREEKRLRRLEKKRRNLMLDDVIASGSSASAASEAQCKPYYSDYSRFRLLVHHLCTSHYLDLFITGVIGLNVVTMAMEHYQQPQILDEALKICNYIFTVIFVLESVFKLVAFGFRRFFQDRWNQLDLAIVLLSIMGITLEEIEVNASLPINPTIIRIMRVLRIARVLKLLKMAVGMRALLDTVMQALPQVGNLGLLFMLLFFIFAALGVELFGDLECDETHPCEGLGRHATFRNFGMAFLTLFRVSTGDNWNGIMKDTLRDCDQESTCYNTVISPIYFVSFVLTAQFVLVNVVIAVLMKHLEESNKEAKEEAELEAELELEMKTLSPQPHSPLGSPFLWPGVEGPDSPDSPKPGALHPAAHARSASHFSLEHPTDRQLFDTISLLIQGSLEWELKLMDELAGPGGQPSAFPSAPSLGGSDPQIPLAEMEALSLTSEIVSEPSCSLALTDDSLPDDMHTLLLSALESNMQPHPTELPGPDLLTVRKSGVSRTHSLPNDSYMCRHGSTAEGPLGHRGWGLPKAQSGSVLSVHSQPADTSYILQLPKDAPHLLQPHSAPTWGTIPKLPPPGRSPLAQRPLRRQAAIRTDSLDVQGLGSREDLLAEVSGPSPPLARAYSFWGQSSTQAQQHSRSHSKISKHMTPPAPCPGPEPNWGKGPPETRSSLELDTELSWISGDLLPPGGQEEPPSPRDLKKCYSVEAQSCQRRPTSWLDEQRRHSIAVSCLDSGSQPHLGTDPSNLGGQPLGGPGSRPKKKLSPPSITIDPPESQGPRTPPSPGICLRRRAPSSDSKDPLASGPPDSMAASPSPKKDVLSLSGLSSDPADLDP

`CN1C(=NC2CCCCC2)SCC1CC(=O)Nc1cccc(F)c1.Cl` (centres unmarked) [KHG24109, (2-cyclohexylimino-3-methyl-1,3-thiazolidine-4-yl)-N-(3-fluorophenyl)-acetamide hydrochloride] registered a melting point of 238 to 239.5 °C. Also, the inhibition at 10 µM in data set [1] was determined as 48.4%.
As for `Cc1cc(NC(=O)CC2CSC(=NC3CCCCC3)N2C)ccc1Br.Cl` (centres unmarked) [KHG24111, (2-cyclohexylimino-3-methyl-1,3-thiazolidine-4-yl)-N-(4-bromo-3-methylphenyl)-acetamide hydrochloride], the melting point was in the range of 237 to 238 °C. The inhibition at 10 µM in data set [1] was 67.7%.
As for `CN1C(=NC2CCCCC2)SCC1CC(=O)NCc1ccc(F)cc1.Cl` (centres unmarked) [KHG24112, (2-cyclohexylimino-3-methyl-1,3-thiazolidine-4-yl)-N-(4-fluorobenzyl)-acetamide hydrochloride], the melting point lay within 200 to 201 °C. Further, the inhibition at 10 µM in data set [1] amounted to 30.3%.
The matching figures for `CC(C)c1ccc(NC(=O)CC2CSC(=NC3CCCC3)N2C)cc1.Cl` (centres unmarked) [KHG24115, (2-cyclopentylimino-3-methyl-1,3-thiazolidine-4-yl)-N-(4-isopropylphenyl)-acetamide hydrochloride]: 213 to 215.5 °C and 49.9%.
Molecule `CCCCc1ccc(NC(=O)CC2CSC(=NC3CCCC3)N2C)cc1.Cl` (centres unmarked) [KHG24116, (2-cyclopentylimino-3-methyl-1,3-thiazolidine-4-yl)-N-(4-n-butylphenyl)-acetamide hydrochloride] displayed a melting point of 216 to 217.5 °C. Also, in data set [1], the inhibition at 10 µM amounted to 65.4%.
On to `CN1C(=NC2CC2)SCC1CC(=O)Nc1ccc(Oc2ccccc2)cc1.Cl` (centres unmarked) [KHG24141, (2-cyclopropylimino-3-methyl-1,3-thiazolidine-4-yl)-N-(4-phenoxyphenyl)-acetamide hydrochloride], for which the melting point lay in the range of 219.5 to 220 °C. Moreover, the inhibition at 10 µM in data set [1] is 35.7%.
Molecule `CCCCc1ccc(NC(=O)CC2CSC(=NC3CC3)N2C)cc1.Cl` (centres unmarked) [KHG24152, (2-cyclopropylimino-3-methyl-1,3-thiazolidine-4-yl)-N-(4-n-butylphenyl)-acetamide hydrochloride] showed a melting point of 227.5 to 228.5 °C. In addition, the inhibition at 10 µM in data set [1] amounted to 33.9%.
Consider `CN1C(=NC2CCCC2)SCC1CC(=O)NCc1ccc(Cl)cc1.Cl` (centres unmarked) [KHG24157, (2-cyclopentylimino-3-methyl-1,3-thiazolidine-4-yl)-N-(4-chlorobenzyl)-acetamide hydrochloride], for which the melting point lay within 180 to 182 °C. Besides, in data set [1], the inhibition at 10 µM was found to be 36.7%.
For the molecule `CN1C(=NCCc2ccccc2)SCC1CC(=O)Nc1cc(C(F)(F)F)cc(C(F)(F)F)c1.Cl` (centres unmarked) [KHG24216, (2-phenethylimino-3-methyl-1,3-thiazolidine-4-yl)-N-(3,5-ditrifluoromethylphenyl)-acetamide hydrochloride], the melting point turned out to be 221.3 °C. For the same molecule, the inhibition at 10 µM in data set [1] is 36%.
In turn, `CN1C(=NCC2CCCCC2)SCC1CC(=O)Nc1cc(C(F)(F)F)cc(C(F)(F)F)c1.Cl` (centres unmarked) [KHG24218, (2-cyclohexylmethylimino-3-methyl-1,3-thiazolidine-4-yl)-N-(3,5-ditrifluoromethylphenyl)-acetamide hydrochloride] had a melting point of 119.6 °C. Besides, the inhibition at 10 µM in data set [1] was found to be 52.8%.
The like results for `CC(C)c1ccc(NC(=O)CC2CSC(=NCCc3ccccc3)N2C)cc1.Cl` (centres unmarked) [KHG24220, (2-phenethylimino-3-methyl-1,3-thiazolidine-4-yl)-N-(4-isopropylphenyl)-acetamide hydrochloride] were, in that order, 225 °C and 40.8%.
In the case of `CC(C)c1ccc(NC(=O)CC2CSC(=NCC3CCCCC3)N2C)cc1.Cl` (centres unmarked) [KHG24222, (2-cyclohexylmethylimino-3-methyl-1,3-thiazolidine-4-yl)-N-(4-isopropylphenyl)-acetamide hydrochloride], the melting point was 250.7 °C. Besides, the inhibition at 10 µM in data set [1] stood at 34.8%.
The molecule `CN1C(=NCCc2ccccc2)SCC1CC(=O)Nc1ccc(Oc2ccccc2)cc1.Cl` (centres unmarked) [KHG24224, (2-phenethylimino-3-methyl-1,3-thiazolidine-4-yl)-N-(4-phenoxyphenyl)-acetamide hydrochloride] came in with a melting point of 225.5 °C. Besides, in data set [1], the inhibition at 10 µM came to 32%.
Regarding `CN1C(=NCCc2ccccc2)SCC1CC(=O)Nc1ccc(Cl)cc1.Cl` (centres unmarked) [KHG24228, (2-phenethylimino-3-methyl-1,3-thiazolidine-4-yl)-N-(4-chlorophenyl)-acetamide hydrochloride], the melting point is 226.7 °C. The inhibition at 10 µM in data set [1] stood at 48.6%.
The like results for `CN1C(=NCC2CCCCC2)SCC1CC(=O)Nc1ccc(Cl)cc1.Cl` (centres unmarked) [KHG24230, (2-cyclohexylmethylimino-3-methyl-1,3-thiazolidine-4-yl)-N-(4-chlorophenyl)-acetamide hydrochloride] were, in that order, 177.1 °C and 33%.
`CN1C(=NCCc2ccccc2)SCC1CC(=O)Nc1cc([N+](=O)[O-])ccc1F.Cl` (centres unmarked) [KHG24232, (2-phenethylimino-3-methyl-1,3-thiazolidine-4-yl)-N-(2-fluoro-5-nitrophenyl)-acetamide hydrochloride] had a melting point of 196.4 °C. Further, the inhibition at 10 µM in data set [1] was determined as 33.7%.
Turning to `CN1C(=NCC2CCCCC2)SCC1CC(=O)Nc1cc([N+](=O)[O-])ccc1F.Cl` (centres unmarked) [KHG24234, (2-cyclohexylmethylimino-3-methyl-1,3-thiazolidine-4-yl)-N-(2-fluoro-5-nitrophenyl)-acetamide hydrochloride], the melting point was 225 °C. The inhibition at 10 µM in data set [1] worked out at 45.4%.
The like results for `CCN1C(=NC2CCCCC2)SCC1CC(=O)Nc1cc(C(F)(F)F)cc(C(F)(F)F)c1.Cl` (centres unmarked) [KHG24261, [2-cyclohexylimino-3-ethyl-1,3-thiazolidine-4-yl]-N-(3,5-ditrifluoromethylphenyl)-acetamide hydrochloride] were, in that order, 226.4 °C and 65%.
Turning to `CCCCN1C(=NC2CCCCC2)SCC1CC(=O)Nc1ccc(Cl)cc1.Cl` (centres unmarked) [KHG24262, [2-cyclohexylimino-3-(n-butyl)-1,3-thiazolidine-4-yl]-N-(4-chlorophenyl)-acetamide hydrochloride], the melting point amounted to 194.3 °C. Also, the inhibition at 10 µM in data set [1] turned out to be 53%.
On to `CCCCN1C(=NC2CCCCC2)SCC1CC(=O)Nc1ccc(Br)cc1.Cl` (centres unmarked) [KHG24263, [2-cyclohexylimino-3-(n-butyl)-1,3-thiazolidine-4-yl]-N-(4-bromophenyl)-acetamide hydrochloride], for which the melting point was determined as 215.2 °C. Also, the inhibition at 10 µM in data set [1] stood at 52.1%.
For the molecule `Cl.O=C(CC1CSC(=NC2CCCCC2)N1C1CC1)Nc1cc(C(F)(F)F)cc(C(F)(F)F)c1` (centres unmarked) [KHG24267, [2-cyclohexylimino-3-cyclopropyl-1,3-thiazolidine-4-yl]-N-(3,5-ditrifluoromethylphenyl)-acetamide hydrochloride], the melting point is 197.3 °C. Besides, the inhibition at 10 µM in data set [1] was 71%.
`Cl.O=C(CC1CSC(=NC2CCCCC2)N1C1CC1)Nc1ccc(C(F)(F)F)cc1` (centres unmarked) [KHG24268, [2-cyclohexylimino-3-cyclopropyl-1,3-thiazolidine-4-yl]-N-(4-trifluoromethylphenyl)-acetamide hydrochloride] yielded a melting point of 240.8 °C. In addition, the inhibition at 10 µM in data set [1] turned out to be 58.7%.

The melting point is the temperature, or range, at which the solid turns liquid.
